Reference: patent US20230202997A1, “CHROMANOL, QUINONE OR HYDROQUINONE COMPOUNDS FOR TREATMENT OF SEPSIS” (Sulfateq B.V., priority 2020, published 2023)

Key:
[1] = system: TNFα mRNA expression; assay: Inhibition of LPS-induced TNFα mRNA expression in NRK52E; format: cell-based, Rat; conditions: 10 μM for 30 min, then LPS 24 hours
Procedure: Rat kidney epithelial cells (ATCC #CRL-1571) were maintained in DMEM medium containing 10% fetal bovine serum, and 1% Penicillin-Streptomycin solution (Sigma-Aldrich). NRK52E cells were passaged by trypsinization when the cultures reached a confluency of 70%. For all experiments, NRK52E cells were seeded at 0.6·10^5 cells/cm^2 and allowed to adhere for 24 hours.
HUVEC and NRK52E cells were pre-incubated with SUL compounds (10 μM) for 30 min and subsequently exposed to LPS for 24 hours under standard culture conditions. Cells were lysed in triZOL reagens (Invitrogen) and total RNA isolated according to manufacturers' instruction. 1 μg total RNA per sample was reverse transcribed using the FirstAid Reverse Transcription Kit (ThermoFisher). Copy-DNA equivalents of 5 ng total RNA were amplified on a ViiA7 Real-time PCR system (ThermoFisher, Waltham, Mass.) using iTaq Universal SYBR Green Supermix (Bio-Rad, Hercules, Calif.) and primers specific for tumor necrosis factor alpha, interleukin 1 beta, interleukin-6 and beta actin as loading control. Amplification was performed for 40 cycles of 95° C. for 30 s, 60° C. for 1 min. Relative mRNA expression was calculated as 2^−(Cq^gene^−Cq^reference^) and normalized to unstimulated control cells (100% inhibition) and vehicle-treated and LPS exposed cells (0% inhibition). The following primers were used: […]

[2] = system: NO production in HUVEC; assay: Endothelial NO production (nitrate in conditioned medium), basal and after LPS; format: cell-based, Human; conditions: 10 μM pre-treatment, LPS 100 ng/ml for 24 hours
Procedure: (§1) Human Umbilical Cord Endothelial Cells (HUVEC, Lonza CC-2519) were maintained on 1% gelatin-coated culture flasks in RPMI1640 medium containing 20% fetal bovine serum, 2 mM Glutamine (Sigma-Aldrich), 1% Penicillin-Streptomycin solution (Sigma-Aldrich) and 50 μg/ml Bovine Pituitary Extract (Invitrogen). HUVEC were passaged by trypsinization when the cultures reach a confluency of 70%. For all experiments, HUVEC were seeded at 0.6·10^5 cells/cm^2 and allowed to adhere for 24 hours.
Cellular production of NO was approximated by measuring nitrate concentrations in culture media using the Measure-IT™ High-Sensitivity Nitrite Assay Kit (#M36051, ThermoFisher) according to manufacturer's instructions. […] Therefore, nitrate concentrations in conditioned media are a good approximate to assess cellular NO production. 50 μl conditioned medium derived from a single 96-wells plate well was used per assay and normalized against protein concentration. All experiments were performed in quadruplicate.
Endotoxins suppress endothelial NO production by limiting the activity of eNOS. HUVEC were pre-treated with vehicle (DMSO), BN-80933, SUL-138, or SUL-150 or (all 10 μM) prior to endotoxin (LPS 100 ng/ml) exposure for 24 hours. The nitrate levels in the conditioned medium from endothelial cells exposed to LPS averaged at 160 pmol/mg protein (˜33% reduction versus non LPS exposed HUVEC, p=0.002), which was lower than basal control levels. BN-80933 further suppressed the nitrate levels in the conditioned medium (FIG. 7A) to an average of 90 pmol/mg protein (p=0.008).

[3] = system: mitochondrial oxidative stress in HUVEC; assay: LPS-induced mitochondrial superoxide in HUVEC (MitoSox); format: cell-based, Human; conditions: 10 μM for 30 min, LPS 100 ng/ml 24 hours
Procedure: as §1
The production of cellular and mitochondrial oxidative stress was measured using fluorescent probes for cellular and mitochondrial superoxide, i.e. dihydroethidium (DHE) and MitoSox (ThermoFisher), respectively. HUVEC were incubated with BN-80933, SUL-138 or SUL-150 (all 10 μM) for 30 min. Next, HUVEC were exposed to LPS (100 ng/ml) for an additional 24 hours. In the final hour of incubation, 2.5 μM of DHE or MitoSox was applied to each sample. HUVEC were washed in PBS and fixed in 4% paraformaldehyde at room temperature for 15 min. Nuclear staining was performed by 5 μM […] (DAPI) and fluorescence intensity of the samples was recorded in a CLARIOStar Plus plate reader (BMG Labtech) equipped with the appropriate filter sets. Fluorescence recordings for DHE and MitoSox were corrected for DAPI fluorescence. All experiments were performed in quadruplicate.

[4] = system: HUVEC; assay: Cell viability after hypothermia-rewarming stress (Neutral Red); format: cell-based, Human; conditions: 10 μM for 1 hour, 4° C. for 24 hours followed by 37° C. for 3 hours
Procedure: as §1
HUVEC were pre-treated with BN-80933, SUL-138 or SUL-150 (all 10 μM) for 1 hour in a humidified incubator at 37° C. Following pre-treatment, HUVEC were placed in a cold room (2-8° C.) for 24 hours and subsequently placed back at 37° C. for a 3 hour rewarming period. After 1 hour of rewarming, cell culture medium was replaced by prewarmed and filtered 0.4 mg/mL Neutral Red (#N463 8, Sigma-Aldrich) in culture medium. After the remaining 2 hour rewarming period, HUVEC were washed with PBS and NRU was solubilized in 100 μL resorption solution (50% ethanol, 1% ascetic acid in dH2O). The absorbance was measured at a wavelength of 550 nm on a BioTek ELx808 plate reader. The recorded OD550 nm values were normalized to control samples that were maintained at 37° C. at all times, which were assumed to be 100% viable.

[5] = system: IL-6 mRNA expression; assay: Endothelial inflammatory activation after endotoxin, IL-6 mRNA (Example 5); format: cell-based, Human; conditions: HUVEC; 10 μM for 30 min
Procedure: as §1
HUVEC cells were lysed in triZOL reagens (Invitrogen) and total RNA isolated according to manufacturers' instruction. 1 μg total RNA per sample was reverse transcribed using the FirstAid Reverse Transcription Kit (ThermoFisher). Copy-DNA equivalents of 5 ng total RNA were amplified on a ViiA7 Real-time PCR system (ThermoFisher, Waltham, Mass.) using iTaq Universal SYBR Green Supermix (Bio-Rad, Hercules, Calif.) and primers specific for tumor necrosis factor alpha (TNFα; sense 5′-[…]-3′, antisense 5′-[…]-3′), interleukin 1 beta (IL-1β; sense 5′-[…]-3′, antisense 5′-[…]-3′), interleukin-6 (IL-6; sense 5′-[…]-3′, antisense 5′-[…]-3′) and beta actin (ACTB; sense 5′-[…]-3′, antisense 5′-[…]-3′) as loading control. Amplification was performed for 40 cycles of 95° C. for 30 s, 60° C. for 1 min. Relative mRNA expression was calculated according to the δδCt-method.

Cc1c(C)c2c(c(C)c1O)CC[C@@](C)(C(=O)N1CCN(CCO)CC1)O2 [SUL-138, (S)-(6-hydroxy-2,5,7,8-tetramethylchroman-2-yl)(4-(2-hydroxyethyl)piperazin-1-yl)methanone]
inhibition of LPS-induced mRNA expression of TNFα [1]: 52.6 ± 11.6 %
nitrate levels in the conditioned medium after LPS [2]: mitigated the LPS-induced reduction in nitrate levels and their levels did not change from basal nitrate level
LPS-induced mitochondrial oxidative stress (MitoSox) [3]: precluded the LPS-induced increase in mitochondrial oxidative stress
reduction in cell viability versus normothermic control cells [4]: ~15%
LPS-induced mRNA expression of IL-6 [5]: precluded the LPS-induced increase in IL-1β and IL-6
